This is an account of results in ChEMBL document CHEMBL3792325, “Two novel phenanthraquinones with anti-cancer activity isolated from Bletilla striata” (Bioorg Med Chem Lett, 2016).

Values after ≈ are worked out from the molar mass of the structure shown.

One experiment deals with MCF7. The experiment is described as follows: Antiproliferative activity against human MCF7 cells assessed as growth inhibition after 48 hrs by MTT assay. The following applies: MCF7, 48 h. Type of experiment: functional, cell-based.
The subject of the next experiment is HT-29. The experiment is described as follows: Antiproliferative activity against human HT-29 cells assessed as growth inhibition after 48 hrs by MTT assay. Type of experiment: functional, cell-based. The following applies: HT-29, 48 h. A general note: Formazan colour is commonly taken as a measure of viable cells.
The next experiment has as its system HUVEC. The experiment is described as follows: Antiproliferative activity against human HUVEC cells assessed as growth inhibition after 48 hrs by MTT assay. It is filed as cell-based.
Experiment [1] concerns A549. The experiment can be described thus: Antiproliferative activity against human A549 cells assessed as growth inhibition after 48 hrs by MTT assay. It is filed as functional, cell-based. The note with it: A549, 48 h.
Experiment [2] concerns A549. The experiment can be described thus: Effect on cell cycle distribution in human A549 cells assessed as accumulation at G1 phase at 20 ug/ml after 24 hrs by propidium iodide staining based flow cytometry method (reference value: 53.24%). Type of experiment: functional.
The test system of experiment [3] is A549. The experiment is described as follows: Effect on cell cycle distribution in human A549 cells assessed as accumulation at G2 phase at 20 ug/ml after 24 hrs by propidium iodide staining based flow cytometry method (reference value: 8%). Type of experiment: functional.
The test system of experiment [4] is A549. The experiment is described as follows: Effect on cell cycle distribution in human A549 cells assessed as accumulation at S phase at 20 ug/ml after 24 hrs by propidium iodide staining based flow cytometry method (reference value: 38.76%). It is filed as functional.
Experiment [5] deals with A549. The experiment is described as follows: Effect on cell cycle distribution in human A549 cells assessed as accumulation at […] phase at 20 ug/ml after 24 hrs by propidium iodide staining based flow cytometry method (reference value: 1.96%). It is filed as functional.
Experiment [6] concerns A549. The experiment can be described thus: Induction of ROS generation in human A549 cells at 20 ug/ml after 24 hrs by FACS-flow cytometry method (reference value: 20.51). Type of experiment: functional. On the technique in general: A flow cytometer gives signals particle by particle.
Experiment [7] concerns A549. The experiment can be described thus: Induction of ROS generation in human A549 cells assessed as fold change at 20 ug/ml after 24 hrs by FACS-flow cytometry method relative to control. Type of experiment: functional.

For orientation: IC50 means the point on the concentration scale where inhibition reaches its midpoint. As to `COC1=Cc2ccc3cc(O)ccc3c2C(=O)C1=O`, the half-maximal inhibitory concentration (IC50) amounted to 18.5 µg/mL (≈ 72.7 µM) in the experiment on MCF7, 25 µg/mL (≈ 98.4 µM) in the experiment with HT-29, 48.3 µg/mL (≈ 190 µM) in the experiment on HUVEC and 19.7 µg/mL (≈ 77.6 µM) in the experiment with A549 [1]. Besides, the Activity is on record as 63.22% with A549 [2], 6.47% in the experiment with A549 [3], 30.31% in the experiment on A549 [4] and 2% in the experiment with A549 [5]. For the same compound, the Flu intensity with A549 [6] is recorded as 136. For the same compound, the “fold change (FC)” value in the experiment on A549 [7] came to 6.

Regarding `COC1=C(c2c(O)ccc3c2ccc2cc(OC)c(O)c(OC)c23)c2ccc3cc(O)ccc3c2C(=O)C1=O`, the IC50 in the experiment on MCF7 was found to be 12.6 µg/mL (≈ 24.2 µM); in the experiment on HT-29, 22.7 µg/mL (≈ 43.4 µM); in the experiment on HUVEC it was 33.5 µg/mL (≈ 64.1 µM); in the experiment on A549 [1], 22.6 µg/mL (≈ 43.3 µM). In addition, the Activity in the experiment with A549 [2] was found to be 69.4%; in the experiment with A549 [3] it was 8%; in the experiment on A549 [4], 22.6%; in the experiment on A549 [5], 1.95%. In the experiment with A549 [6], the Flu intensity is on record as 256.68. The “fold change (FC)” value in the experiment with A549 [7] is given as 10.

With `COc1cc2ccc3c(OC)c(O)ccc3c2c(OC)c1O`, the IC50 in the experiment on MCF7, with HT-29, in the experiment with HUVEC and with A549 [1] was over 100 µg/mL in each case.

For `COc1cc(O)c2c(c1)C(=O)c1cc(C)cc(O)c1C2=O` [PHYSCION], the IC50 with MCF7, in the experiment with HT-29, in the experiment on HUVEC and in the experiment with A549 [1] was over 100 µg/mL throughout.

With `Cc1ccc2c(c1)C(=O)c1ccccc1C2=O` [TECTOQUINONE], the IC50 in the experiment on MCF7, in the experiment with HT-29, with HUVEC and in the experiment with A549 [1] was over 100 µg/mL each time.

Consider `COc1cc(C(=O)O)ccc1O` [VANILLIC ACID], for which the IC50 in the experiment on MCF7, with HT-29, in the experiment with HUVEC and in the experiment on A549 [1] was over 100 µg/mL each time.
